# In ChEMBL document CHEMBL3832761, “MMV Pathogen Box Bioactivity Data” (2017):
# Legend:
# Assay type in all cases: functional
# [1] = tested on: Mycobacterium tuberculosis; experiment: (§1) AntiMycobacterium tuberculosis activity day 10 in 7H9/2.5mM butyrate/pH6/0.1mM nitrite MIC90 (uM); conditions: 240 h
# HepG2 = experiment: HepG2 CC50 (uM) Cytotoxicity; conditions: Homo sapiens
# [2] = tested on: Mycobacterium tuberculosis; experiment: AntiMycobacterium tuberculosis activity Non-Replicating form: Average MIC90 (uM)
# [3] = tested on: Mycobacterium tuberculosis; experiment: AntiMycobacterium tuberculosis activity 2-week GAST/Fe MIC (uM); conditions: 336 h
# [4] = tested on: Mycobacterium tuberculosis; experiment: AntiMycobacterium tuberculosis activity 1-week 7H9/cholesterol/BSA/Tx MIC (uM); conditions: 168 h
# [5] = tested on: Mycobacterium tuberculosis; experiment: AntiMycobacterium tuberculosis activity day 21 MIC99 in 7H9/2.5mM butyrate/pH6/0.1mM nitrite MIC99 (uM); conditions: 504 h
# [6] = tested on: Mycobacterium tuberculosis; experiment: AntiMycobacterium tuberculosis activity 2-week Alamar Blue 7H9/ADC/Tw MIC (uM); conditions: 336 h
# [7] = tested on: Mycobacterium tuberculosis; experiment: AntiMycobacterium tuberculosis activity 1-week 7H9/ADC/Tw MIC (uM); conditions: 168 h
# [8] = tested on: Mycobacterium tuberculosis; experiment: AntiMycobacterium tuberculosis activity day 21 in 7H9/2.5mM butyrate/pH6/0.1mM nitrite MIC90 (uM); conditions: 504 h
# [9] = tested on: Mycobacterium tuberculosis; experiment: AntiMycobacterium tuberculosis activity 1-week GAST/Fe MIC (uM); conditions: 168 h
# [10] = tested on: Mycobacterium tuberculosis; experiment: AntiMycobacterium tuberculosis activity 1-week 7H9/glucose/BSA/Tx MIC (uM); conditions: 168 h
# [11] = tested on: Mycobacterium tuberculosis; experiment: AntiMycobacterium tuberculosis activity 1-week 7H9/DPPC/cholesterol/BSA/Tx MIC (uM); conditions: 168 h
# [12] = tested on: Mycobacterium tuberculosis; experiment: AntiMycobacterium tuberculosis activity 2-week 7H9/glucose/BSA/Tx MIC (uM); conditions: 336 h
# [13] = tested on: Mycobacterium tuberculosis; experiment: AntiMycobacterium tuberculosis activity 2-week 7H9/ADC/Tw MIC (uM); conditions: 336 h
# [14] = tested on: Mycobacterium tuberculosis; experiment: as §1; conditions: 240 h; remark: listed apart in the source
# [15] = tested on: Mycobacterium tuberculosis; experiment: AntiMycobacterium tuberculosis activity 2-week 7H9/DPPC/cholesterol/BSA/Tx MIC (uM); conditions: 336 h
# [16] = tested on: Mycobacterium tuberculosis; experiment: AntiMycobacterium tuberculosis activity Replicating form: Average MIC90 (uM)
# [17] = tested on: Mycobacterium tuberculosis; experiment: AntiMycobacterium tuberculosis activity 2-week Alamar Blue 7H9/cholesterol/BSA/Tx MIC (uM); conditions: 336 h
SMILES,MIC90 [1],CC50 (HepG2),MIC90 [2],MIC [3],MIC [4],MIC [5],MIC [6],MIC [7],MIC90 [8],MIC [9],MIC [10],MIC [11],MIC [12],MIC [13],MIC90 [14],MIC [15],MIC90 [16],MIC [17]
Nc1cccnc1Nc1ccc(Cl)cc1,12.5 µM,9 µM,3.65 µM,50 µM,9.4 µM,> 50 µM,37 µM,> 50 µM,50 µM,50 µM,50 µM,12.5 µM,50 µM,> 50 µM,> 50 µM,19 µM,4.3 µM,4.7 µM
CC1COC2(CCN(c3nc(=O)c4cc(C(F)(F)F)cc([N+](=O)[O-])c4s3)CC2)O1 (stereo unspecified),≤ 0.04 µM,> 100 µM,< 0.01 µM,< 0.02 µM,< 0.02 µM,≤ 0.04 µM,< 0.02 µM,< 0.02 µM,≤ 0.04 µM,< 0.02 µM,< 0.02 µM,< 0.02 µM,< 0.02 µM,< 0.02 µM,≤ 0.04 µM,< 0.02 µM,< 0.01 µM,< 0.02 µM
O=C(CCC1CCCCC1)Nc1cccc(-c2nnc(-c3ccco3)o2)c1,1.5 µM,> 100 µM,13.7 µM,1.2 µM,1.56 µM,1.5 µM,2.3 µM,1.2 µM,1.5 µM,1.2 µM,2.3 µM,2.3 µM,3.13 µM,2.3 µM,1.5 µM,3.13 µM,5.42 µM,3.13 µM
O=C(Nc1nnc(-c2ccc(Cl)s2)o1)c1ccc(Cl)s1,6.5 µM,50.1 µM,2.76 µM,1.2 µM,3.13 µM,> 50 µM,9.4 µM,9.4 µM,6.25 µM,0.78 µM,4.7 µM,6.25 µM,6.25 µM,9.4 µM,> 50 µM,12.5 µM,35.2 µM,6.25 µM
CC(=O)NCC1CN(c2ccc(-c3ccc(CNCc4cn[nH]n4)cc3)c(F)c2)C(=O)O1 (stereo unspecified),0.19 µM,> 100 µM,0.31 µM,0.15 µM,0.3 µM,1.5 µM,0.39 µM,0.3 µM,0.39 µM,0.1 µM,0.2 µM,0.1 µM,0.3 µM,0.39 µM,1.5 µM,0.3 µM,0.51 µM,0.39 µM
CN1CCN(CCCOc2ncc(Nc3ncc(-c4ccc(C(F)(F)F)c(F)c4)nc3C(N)=O)cn2)CC1,0.78 µM,3.9 µM,3.1 µM,1.56 µM,0.39 µM,12.5 µM,1.56 µM,1.2 µM,1.5 µM,1.56 µM,1.2 µM,0.2 µM,1.56 µM,1.56 µM,12.5 µM,0.6 µM,3.46 µM,0.6 µM
COc1cccc(OC)c1C(=O)Nc1ccc(Cl)c(-c2nc3ccccc3s2)c1,> 50 µM,> 100 µM,55.1 µM,9.4 µM,12.5 µM,> 50 µM,37 µM,37 µM,> 50 µM,6.25 µM,25 µM,12.5 µM,25 µM,37 µM,> 50 µM,12.5 µM,26.1 µM,19 µM
